This passage reports remaining activity results from patent publication US12227500B2, “Substituted pyrrolo[2,3-b]pyridines for suppressing toxic endoplasmic reticulum stress” (THE TRUSTEES OF COLUMBIA UNIVERSITY IN THE CITY OF NEW YORK, priority 2018, dated 2025).

SMILES strings stand for the structures. Like-named read-outs stand apart in the source and are kept apart here.

Holding throughout (assay): Radiolabeled ATP kinase assay, panel of 60 kinases (Table S5)
Common to all, as to assay type: biochemical

The target in assay [1] is T1, panel of 60 human kinases (Homo sapiens, UniProt P08581).
T1 construct: purchased Reaction Biology Corp
Particulars: c-MET; 0.1 μM; 10 μM ATP; read-out: % Enzyme Activity (relative to DSMO controls). The essentials: (§1)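 Compounds at two concentrations, 0.1 μM and 0.5 μM, were screened for inhibition of 60 kinases in cell-free assays read out by radiolabeled ATP.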

The target in assay [2] is T2, panel of 60 human kinases (Homo sapiens, UniProt P53778).
T2 construct: purchased Reaction Biology Corp
T2 sequence (P53778 1-367): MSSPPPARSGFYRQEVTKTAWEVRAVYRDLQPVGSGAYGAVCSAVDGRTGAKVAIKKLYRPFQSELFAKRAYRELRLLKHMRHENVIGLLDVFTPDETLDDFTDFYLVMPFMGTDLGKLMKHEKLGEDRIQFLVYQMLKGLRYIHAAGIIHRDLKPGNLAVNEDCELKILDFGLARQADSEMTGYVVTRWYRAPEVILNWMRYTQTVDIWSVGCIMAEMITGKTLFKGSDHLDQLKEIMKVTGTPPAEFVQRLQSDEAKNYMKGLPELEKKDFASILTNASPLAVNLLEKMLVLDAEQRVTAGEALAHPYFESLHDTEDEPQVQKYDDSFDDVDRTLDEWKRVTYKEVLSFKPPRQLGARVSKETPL
Particulars: P38g; 0.1 μM; 10 μM ATP; read-out: % Enzyme Activity (relative to DSMO controls). The method in brief:
as §1

Assay [3] concerns the target T3, panel of 60 human kinases (Homo sapiens, UniProt Q92630).
T3 construct: purchased Reaction Biology Corp
T3 sequence (Q92630 1-601): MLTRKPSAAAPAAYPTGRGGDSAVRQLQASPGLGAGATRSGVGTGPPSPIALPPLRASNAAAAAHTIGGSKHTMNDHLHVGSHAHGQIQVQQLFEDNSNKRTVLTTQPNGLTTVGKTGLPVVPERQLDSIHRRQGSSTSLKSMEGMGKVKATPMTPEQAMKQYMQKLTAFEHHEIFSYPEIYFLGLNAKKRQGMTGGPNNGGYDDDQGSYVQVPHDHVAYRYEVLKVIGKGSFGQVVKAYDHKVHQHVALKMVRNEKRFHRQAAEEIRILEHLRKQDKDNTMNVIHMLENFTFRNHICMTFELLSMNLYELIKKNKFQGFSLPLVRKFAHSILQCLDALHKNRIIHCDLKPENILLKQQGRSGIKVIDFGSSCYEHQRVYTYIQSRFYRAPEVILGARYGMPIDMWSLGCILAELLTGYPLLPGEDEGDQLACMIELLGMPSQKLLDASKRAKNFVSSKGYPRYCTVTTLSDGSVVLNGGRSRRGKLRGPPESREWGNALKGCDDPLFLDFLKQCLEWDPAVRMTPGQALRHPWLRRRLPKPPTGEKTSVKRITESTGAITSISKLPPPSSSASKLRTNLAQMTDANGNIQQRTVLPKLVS
Particulars: DYRK2; 0.1 μM; 10 μM ATP; read-out: % Enzyme Activity (relative to DSMO controls). The method in brief:
as §1

Assay [4] has as its target T4, panel of 60 human kinases (Homo sapiens, UniProt P49841).
T4 construct: purchased Reaction Biology Corp
To be noted: GSK3b; 0.1 μM; 10 μM ATP; read-out: % Enzyme Activity (relative to DSMO controls). The method in brief: as §1

For assay [5], the target named is T5, panel of 60 human kinases (Homo sapiens, UniProt P24941).
T5 construct: purchased Reaction Biology Corp
To be noted: 0.1 μM, 10 μM ATP, read-out: % Enzyme Activity (relative to DSMO controls). The essentials:
as §1

Assay [6] addresses T6, panel of 60 human kinases (Homo sapiens, UniProt Q08345).
T6 construct: purchased Reaction Biology Corp
To be noted: DDR1; 0.1 μM; 10 μM ATP; read-out: % Enzyme Activity (relative to DSMO controls). The method in brief:
as §1

The target in assay [7] is T7, panel of 60 human kinases (Homo sapiens, UniProt O75460).
T7 construct: purchased Reaction Biology Corp
To be noted: ERN1/IRE1; 0.1 μM; 10 μM ATP; read-out: % Enzyme Activity (relative to DSMO controls). The essentials:
as §1

Assay [8] has as its target T8, panel of 60 human kinases (Homo sapiens, UniProt O95819).
T8 construct: purchased Reaction Biology Corp
Particulars: HGK/MAP4K4; 0.1 μM; 10 μM ATP; read-out: % Enzyme Activity (relative to DSMO controls). The method in brief: as §1

Assay [9] addresses T9, panel of 60 human kinases (Homo sapiens, UniProt Q15139).
T9 construct: purchased Reaction Biology Corp
T9 sequence (Q15139 1-912): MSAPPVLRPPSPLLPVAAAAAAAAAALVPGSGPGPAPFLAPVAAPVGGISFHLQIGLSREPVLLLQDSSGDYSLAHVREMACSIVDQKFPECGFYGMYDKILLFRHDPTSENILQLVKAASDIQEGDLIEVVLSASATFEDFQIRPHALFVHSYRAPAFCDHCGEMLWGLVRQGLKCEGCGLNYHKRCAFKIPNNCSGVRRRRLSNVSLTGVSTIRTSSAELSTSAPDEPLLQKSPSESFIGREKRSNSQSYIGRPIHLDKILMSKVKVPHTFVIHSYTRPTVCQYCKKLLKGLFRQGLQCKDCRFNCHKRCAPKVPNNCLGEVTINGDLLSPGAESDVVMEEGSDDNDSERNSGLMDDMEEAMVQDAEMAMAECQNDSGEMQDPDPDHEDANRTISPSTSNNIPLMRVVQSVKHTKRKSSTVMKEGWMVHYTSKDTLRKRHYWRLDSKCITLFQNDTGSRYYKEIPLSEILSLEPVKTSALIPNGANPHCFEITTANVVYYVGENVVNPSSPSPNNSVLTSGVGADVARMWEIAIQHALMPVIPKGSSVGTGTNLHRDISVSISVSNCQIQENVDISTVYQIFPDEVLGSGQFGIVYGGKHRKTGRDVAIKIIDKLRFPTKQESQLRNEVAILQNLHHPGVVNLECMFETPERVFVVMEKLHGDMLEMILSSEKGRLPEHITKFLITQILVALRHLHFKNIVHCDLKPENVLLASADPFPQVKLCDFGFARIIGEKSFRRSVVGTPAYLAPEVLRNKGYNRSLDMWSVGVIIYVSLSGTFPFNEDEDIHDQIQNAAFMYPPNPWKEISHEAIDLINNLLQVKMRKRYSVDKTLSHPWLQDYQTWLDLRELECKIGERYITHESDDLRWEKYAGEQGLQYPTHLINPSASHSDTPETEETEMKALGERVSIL
To be noted: PKCmu/PRKD1; 0.1 μM; 10 μM ATP; read-out: % Enzyme Activity (relative to DSMO controls). The essentials:
as §1

T6 sequence (Q08345 19-913): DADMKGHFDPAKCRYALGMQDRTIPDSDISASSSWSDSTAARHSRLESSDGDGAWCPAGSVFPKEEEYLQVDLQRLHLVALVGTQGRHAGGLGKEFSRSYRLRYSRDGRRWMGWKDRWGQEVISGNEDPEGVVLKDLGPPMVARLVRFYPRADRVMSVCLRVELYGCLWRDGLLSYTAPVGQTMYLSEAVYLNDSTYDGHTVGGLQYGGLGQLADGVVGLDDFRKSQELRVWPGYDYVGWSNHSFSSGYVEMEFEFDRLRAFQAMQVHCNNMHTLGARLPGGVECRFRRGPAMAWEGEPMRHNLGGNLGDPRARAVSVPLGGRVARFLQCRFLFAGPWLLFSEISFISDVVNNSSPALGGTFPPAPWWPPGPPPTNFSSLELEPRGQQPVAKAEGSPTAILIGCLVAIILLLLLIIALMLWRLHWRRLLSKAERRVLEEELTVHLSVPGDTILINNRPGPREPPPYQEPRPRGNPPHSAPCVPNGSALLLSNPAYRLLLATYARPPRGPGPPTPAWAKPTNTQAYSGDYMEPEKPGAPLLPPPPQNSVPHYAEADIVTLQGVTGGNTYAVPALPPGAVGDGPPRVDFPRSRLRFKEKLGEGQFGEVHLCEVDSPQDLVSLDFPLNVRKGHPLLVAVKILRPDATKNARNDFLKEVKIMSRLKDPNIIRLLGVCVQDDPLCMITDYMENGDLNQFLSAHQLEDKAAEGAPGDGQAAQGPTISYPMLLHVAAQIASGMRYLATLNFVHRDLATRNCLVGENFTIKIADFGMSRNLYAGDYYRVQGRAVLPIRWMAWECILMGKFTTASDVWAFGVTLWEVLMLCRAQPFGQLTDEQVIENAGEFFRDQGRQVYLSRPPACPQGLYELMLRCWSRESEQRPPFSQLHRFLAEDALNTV
T4 sequence (P49841 whole entry): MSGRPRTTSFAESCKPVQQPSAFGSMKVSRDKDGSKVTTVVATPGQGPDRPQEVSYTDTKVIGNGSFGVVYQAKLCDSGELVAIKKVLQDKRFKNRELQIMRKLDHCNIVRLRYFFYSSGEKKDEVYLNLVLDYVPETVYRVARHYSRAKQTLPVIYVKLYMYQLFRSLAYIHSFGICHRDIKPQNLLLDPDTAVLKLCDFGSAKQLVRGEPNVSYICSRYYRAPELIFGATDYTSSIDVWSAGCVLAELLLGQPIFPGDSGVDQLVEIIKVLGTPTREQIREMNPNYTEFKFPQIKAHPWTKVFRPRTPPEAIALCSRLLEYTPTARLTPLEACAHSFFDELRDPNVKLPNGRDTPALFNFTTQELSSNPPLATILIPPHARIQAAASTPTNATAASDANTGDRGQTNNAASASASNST
T8 sequence (O95819 whole entry): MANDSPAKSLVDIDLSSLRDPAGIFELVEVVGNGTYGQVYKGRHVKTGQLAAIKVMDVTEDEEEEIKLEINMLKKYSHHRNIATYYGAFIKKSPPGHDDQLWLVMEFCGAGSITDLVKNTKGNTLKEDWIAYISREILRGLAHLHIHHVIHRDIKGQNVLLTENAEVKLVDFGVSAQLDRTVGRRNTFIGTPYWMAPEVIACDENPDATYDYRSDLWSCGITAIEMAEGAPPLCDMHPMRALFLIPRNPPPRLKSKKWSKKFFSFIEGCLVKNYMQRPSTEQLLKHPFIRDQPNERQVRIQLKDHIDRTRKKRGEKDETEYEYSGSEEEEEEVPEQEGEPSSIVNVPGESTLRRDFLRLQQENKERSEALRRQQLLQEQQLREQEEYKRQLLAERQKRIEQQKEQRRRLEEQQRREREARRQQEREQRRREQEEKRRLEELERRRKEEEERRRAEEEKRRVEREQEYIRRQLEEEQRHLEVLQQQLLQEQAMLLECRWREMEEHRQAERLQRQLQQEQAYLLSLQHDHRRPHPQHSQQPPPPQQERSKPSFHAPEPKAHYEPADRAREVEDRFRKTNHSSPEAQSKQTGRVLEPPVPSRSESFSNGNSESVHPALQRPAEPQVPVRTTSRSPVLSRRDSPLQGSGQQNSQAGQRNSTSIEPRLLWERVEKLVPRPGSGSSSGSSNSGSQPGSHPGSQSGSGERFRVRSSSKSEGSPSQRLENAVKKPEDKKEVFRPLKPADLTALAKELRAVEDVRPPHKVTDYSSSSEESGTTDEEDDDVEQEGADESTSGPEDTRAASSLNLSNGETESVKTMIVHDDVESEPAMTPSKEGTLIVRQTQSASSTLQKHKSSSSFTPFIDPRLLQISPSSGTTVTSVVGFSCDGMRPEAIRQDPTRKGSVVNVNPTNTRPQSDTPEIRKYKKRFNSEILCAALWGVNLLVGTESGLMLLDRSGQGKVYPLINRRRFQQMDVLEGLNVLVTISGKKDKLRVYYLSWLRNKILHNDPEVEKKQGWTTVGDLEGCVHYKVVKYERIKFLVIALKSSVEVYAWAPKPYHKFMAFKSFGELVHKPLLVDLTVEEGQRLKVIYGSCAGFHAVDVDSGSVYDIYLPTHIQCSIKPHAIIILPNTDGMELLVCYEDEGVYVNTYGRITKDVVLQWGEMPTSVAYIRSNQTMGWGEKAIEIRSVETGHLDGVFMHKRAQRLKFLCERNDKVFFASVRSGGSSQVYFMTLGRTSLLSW
T7 sequence (O75460 19-977): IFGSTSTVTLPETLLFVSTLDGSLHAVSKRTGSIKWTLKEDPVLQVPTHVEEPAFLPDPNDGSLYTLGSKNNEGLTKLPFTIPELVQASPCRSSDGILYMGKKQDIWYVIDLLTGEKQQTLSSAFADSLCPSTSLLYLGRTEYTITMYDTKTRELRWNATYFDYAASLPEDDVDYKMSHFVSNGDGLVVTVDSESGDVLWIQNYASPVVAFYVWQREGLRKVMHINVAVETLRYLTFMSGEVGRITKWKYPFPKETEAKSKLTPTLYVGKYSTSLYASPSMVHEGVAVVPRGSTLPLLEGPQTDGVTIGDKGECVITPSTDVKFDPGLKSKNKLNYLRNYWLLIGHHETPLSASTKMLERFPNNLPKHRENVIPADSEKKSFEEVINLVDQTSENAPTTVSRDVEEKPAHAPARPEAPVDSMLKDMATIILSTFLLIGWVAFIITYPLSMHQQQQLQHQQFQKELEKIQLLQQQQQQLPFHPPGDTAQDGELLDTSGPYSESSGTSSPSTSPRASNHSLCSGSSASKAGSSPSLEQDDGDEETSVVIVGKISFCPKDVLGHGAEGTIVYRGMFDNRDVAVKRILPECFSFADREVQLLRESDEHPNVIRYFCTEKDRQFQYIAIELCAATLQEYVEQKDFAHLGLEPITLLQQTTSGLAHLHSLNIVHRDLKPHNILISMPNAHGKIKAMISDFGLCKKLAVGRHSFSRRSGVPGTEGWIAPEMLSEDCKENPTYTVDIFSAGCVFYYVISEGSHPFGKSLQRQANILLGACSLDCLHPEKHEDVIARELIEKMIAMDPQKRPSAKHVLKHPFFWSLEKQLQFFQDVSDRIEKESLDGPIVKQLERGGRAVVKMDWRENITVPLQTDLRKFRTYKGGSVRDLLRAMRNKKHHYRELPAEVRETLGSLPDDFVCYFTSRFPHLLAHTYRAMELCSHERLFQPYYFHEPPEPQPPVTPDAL
T1 sequence (P08581 25-1390): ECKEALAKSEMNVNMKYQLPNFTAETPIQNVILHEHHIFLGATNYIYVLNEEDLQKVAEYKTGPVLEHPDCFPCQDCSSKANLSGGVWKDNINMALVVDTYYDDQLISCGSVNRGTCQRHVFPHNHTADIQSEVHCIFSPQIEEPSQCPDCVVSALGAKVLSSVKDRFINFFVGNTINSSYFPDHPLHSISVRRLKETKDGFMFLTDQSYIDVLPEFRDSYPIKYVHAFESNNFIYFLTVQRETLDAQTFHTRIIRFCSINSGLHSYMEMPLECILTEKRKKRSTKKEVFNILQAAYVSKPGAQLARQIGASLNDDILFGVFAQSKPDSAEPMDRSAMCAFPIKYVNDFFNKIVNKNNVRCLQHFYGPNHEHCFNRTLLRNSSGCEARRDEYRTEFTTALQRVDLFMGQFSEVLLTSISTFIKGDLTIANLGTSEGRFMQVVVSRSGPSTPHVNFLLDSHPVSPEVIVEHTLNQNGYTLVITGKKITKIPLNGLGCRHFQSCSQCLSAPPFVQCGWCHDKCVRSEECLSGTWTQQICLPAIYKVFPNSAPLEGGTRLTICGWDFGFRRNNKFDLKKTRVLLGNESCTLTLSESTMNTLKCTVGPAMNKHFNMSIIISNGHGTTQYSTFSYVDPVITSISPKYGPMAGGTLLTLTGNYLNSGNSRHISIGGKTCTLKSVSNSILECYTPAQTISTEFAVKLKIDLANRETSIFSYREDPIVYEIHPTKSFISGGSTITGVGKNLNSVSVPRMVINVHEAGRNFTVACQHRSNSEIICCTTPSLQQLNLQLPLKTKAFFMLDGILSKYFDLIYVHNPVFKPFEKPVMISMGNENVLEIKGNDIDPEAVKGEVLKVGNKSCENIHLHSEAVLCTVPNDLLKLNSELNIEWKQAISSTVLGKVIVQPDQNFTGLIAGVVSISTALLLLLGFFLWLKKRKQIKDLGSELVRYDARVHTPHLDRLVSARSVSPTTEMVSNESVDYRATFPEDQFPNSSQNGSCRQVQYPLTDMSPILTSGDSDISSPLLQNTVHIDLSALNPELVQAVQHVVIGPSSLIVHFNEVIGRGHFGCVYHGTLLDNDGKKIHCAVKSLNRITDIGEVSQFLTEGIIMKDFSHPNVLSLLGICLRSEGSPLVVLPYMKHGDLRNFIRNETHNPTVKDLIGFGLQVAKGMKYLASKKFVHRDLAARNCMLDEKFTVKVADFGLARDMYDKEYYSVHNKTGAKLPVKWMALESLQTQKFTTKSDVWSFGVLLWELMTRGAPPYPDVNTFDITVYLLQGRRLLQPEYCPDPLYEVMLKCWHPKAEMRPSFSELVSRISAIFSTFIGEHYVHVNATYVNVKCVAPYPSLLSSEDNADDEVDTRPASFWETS

As to `CN1CCN(Cc2ccc(-c3cnc4[nH]cc(-c5ccc6c(c5)OCCO6)c4c3)cc2)CC1` [Compound 7d, 3-(2,3-Dihydrobenzo[b][1,4]dioxin-6-yl)-5-(4-((4-methylpiperazin-1-yl)methyl)phenyl)-1H-pyrrolo[2,3-b]pyridine], the remaining activity at 0.1 µM turned out to be 110% in [1]; 108% in [2]; 8.19% in assay [3]; 30.9% in assay [4]; 38.8% in assay [5] (CDK2/cyclin A1); 34.4% in assay [5] (CDK2/cyclin A). Besides, the remaining activity at 0.1 µM in assay [5] (CDK2/cyclin E) amounted to 89.1%; in [5] (CDK2/cyclin O), 39%; in assay [6], 57.4%; in assay [7], 107%; in assay [8], 2.05%; in assay [9], 4.34%.

As to `CN1CCN(Cc2ccc(-c3cnc4[nH]cc(-c5ccncc5)c4c3)cc2)CC1` [Compound 7n, 5-(4-((4-Methylpiperazin-1-yl)methyl)phenyl)-3-(pyridin-4-yl)-1H-pyrrolo[2,3-b]pyridine], the remaining activity at 0.1 µM is 102% in assay [1]; 114% in assay [2]; 63.6% in assay [3]; 90.7% in assay [4]; 60.2% in [5] (CDK2/cyclin A1); 66% in assay [5] (CDK2/cyclin A). Moreover, the remaining activity at 0.1 µM in assay [5] (CDK2/cyclin E) is 54.3%; in assay [5] (CDK2/cyclin O), 43.7%; in [6], 79.7%; in assay [7] it was 107%; in assay [8] it was 35%; in assay [9], 31.5%.

As to `CN1CCN(Cc2ccc(-c3cnc4[nH]cc(-c5ccoc5)c4c3)cc2)CC1` [Compound 7w, 3-(Furan-3-yl)-5-(4-((4-methylpiperazin-1-yl)methyl)phenyl)-1H-pyrrolo[2,3-b]pyridine], the remaining activity at 0.1 µM in [1] was determined as 96.6%; in assay [2] it was 116%; in [3] it was 90.4%; in assay [4], 85.1%; in assay [5] (CDK2/cyclin A1) it was 88.6%; in [5] (CDK2/cyclin A), 91.1%. For the same compound, the remaining activity at 0.1 µM in assay [5] (CDK2/cyclin E) was 92.4%; in assay [5] (CDK2/cyclin O) it was 80.2%; in assay [6] it was 75.2%; in assay [7], 102%; in assay [8] it was 2.85%; in assay [9], 20.4%.
